Literature values, collected in patent US20220211725A1, “Pharmaceutical Composition Comprising Venetoclax” (Alembic Pharmaceuticals Limited, priority 2019, published 2022).

Conditions: background description

CC1(C)CCC(CN2CCN(c3ccc(C(=O)NS(=O)(=O)c4ccc(NCC5CCOCC5)c([N+](=O)[O-])c4)c(Oc4cnc5[nH]ccc5c4)c3)CC2)=C(c2ccc(Cl)cc2)C1 [Venetoclax]
aqueous solubility: very low
